ChEMBL document CHEMBL4308841, “Synthesis, in vitro antiproliferative activity, and kinase inhibitory effects of pyrazole-containing diarylureas and diarylamides” (Eur J Med Chem, 2018)

tested on: IGROV-1; test: Growth inhibition of human IGROV1 cells incubated for 48 hrs by sulforhodamine B assay; format: functional, cell-based; details: IGROV-1, 48 h, read-out: pLC50 (the source's name) (converted)

Row | SMILES | CC50 [µM]
1 | COc1cc(Cl)cc(-c2nn(-c3cccc(NC(=O)Nc4ccc(Cl)c(Cl)c4)c3)cc2-c2ccncc2)c1 | > 100

same assay, conditions: IGROV-1, 48 h, read-out: pTGI (converted)

Row | SMILES | TGI [µM]
2 | COc1cc(Cl)cc(-c2nn(-c3cccc(NC(=O)Nc4ccc(Cl)c(Cl)c4)c3)cc2-c2ccncc2)c1 | > 100

tested on: ACHN; test: Growth inhibition of human ACHN cells incubated for 48 hrs by sulforhodamine B assay; format: functional, cell-based; details: read-out: GI50

Row | SMILES | GI50 [µM]
3 | COc1cc(Cl)cc(-c2nn(-c3cccc(NC(=O)Nc4ccc(Cl)c(Cl)c4)c3)cc2-c2ccncc2)c1 | 3.23

same assay, conditions: read-out: LC50 (the source's name)

Row | SMILES | CC50 [µM]
4 | COc1cc(Cl)cc(-c2nn(-c3cccc(NC(=O)Nc4ccc(Cl)c(Cl)c4)c3)cc2-c2ccncc2)c1 | > 100

same assay, conditions: read-out: TGI

Row | SMILES | TGI [µM]
5 | COc1cc(Cl)cc(-c2nn(-c3cccc(NC(=O)Nc4ccc(Cl)c(Cl)c4)c3)cc2-c2ccncc2)c1 | > 100

same assay, conditions: read-out: pGI50 (converted)

Row | SMILES | GI50 [µM]
6 | COc1cc(Cl)cc(-c2nn(-c3cccc(NC(=O)Nc4ccc(Cl)c(Cl)c4)c3)cc2-c2ccncc2)c1 | 3.24

same assay, conditions: read-out: pLC50 (the source's name) (converted)

Row | SMILES | CC50 [µM]
7 | COc1cc(Cl)cc(-c2nn(-c3cccc(NC(=O)Nc4ccc(Cl)c(Cl)c4)c3)cc2-c2ccncc2)c1 | > 100

same assay, conditions: read-out: pTGI (converted)

Row | SMILES | TGI [µM]
8 | COc1cc(Cl)cc(-c2nn(-c3cccc(NC(=O)Nc4ccc(Cl)c(Cl)c4)c3)cc2-c2ccncc2)c1 | > 100

tested on: CAKI-1; test: Growth inhibition of human Caki1 cells incubated for 48 hrs by sulforhodamine B assay; format: functional, cell-based; details: CAKI-1, 48 h, read-out: GI50

Row | SMILES | GI50 [µM]
9 | COc1cc(Cl)cc(-c2nn(-c3cccc(NC(=O)Nc4ccc(Cl)c(Cl)c4)c3)cc2-c2ccncc2)c1 | 2.38

same assay, conditions: CAKI-1, 48 h, read-out: LC50 (the source's name)

Row | SMILES | CC50 [µM]
10 | COc1cc(Cl)cc(-c2nn(-c3cccc(NC(=O)Nc4ccc(Cl)c(Cl)c4)c3)cc2-c2ccncc2)c1 | > 100

same assay, conditions: CAKI-1, 48 h, read-out: TGI

Row | SMILES | TGI [µM]
11 | COc1cc(Cl)cc(-c2nn(-c3cccc(NC(=O)Nc4ccc(Cl)c(Cl)c4)c3)cc2-c2ccncc2)c1 | 15.7

same assay, conditions: CAKI-1, 48 h, read-out: pGI50 (converted)

Row | SMILES | GI50 [µM]
12 | COc1cc(Cl)cc(-c2nn(-c3cccc(NC(=O)Nc4ccc(Cl)c(Cl)c4)c3)cc2-c2ccncc2)c1 | 2.4

same assay, conditions: CAKI-1, 48 h, read-out: pLC50 (the source's name) (converted)

Row | SMILES | CC50 [µM]
13 | COc1cc(Cl)cc(-c2nn(-c3cccc(NC(=O)Nc4ccc(Cl)c(Cl)c4)c3)cc2-c2ccncc2)c1 | > 100

same assay, conditions: CAKI-1, 48 h, read-out: pTGI (converted)

Row | SMILES | TGI [µM]
14 | COc1cc(Cl)cc(-c2nn(-c3cccc(NC(=O)Nc4ccc(Cl)c(Cl)c4)c3)cc2-c2ccncc2)c1 | 16.6

tested on: HOP-62; test: Growth inhibition of human HOP62 cells assessed as cell growth at 0.01 uM incubated for 48 hrs by sulforhodamine B assay relative to control; format: functional; details: HOP-62, 48 h, read-out: Activity

Row | SMILES | growth at 0.01 µM [%]
15 | COc1cc(Cl)cc(-c2nn(-c3cccc(NC(=O)Nc4ccc(Cl)c(Cl)c4)c3)cc2-c2ccncc2)c1 | 92

tested on: SNB-19; test: Growth inhibition of human SNB19 cells assessed as cell growth at 0.01 uM incubated for 48 hrs by sulforhodamine B assay relative to control; format: functional; details: SNB-19, 48 h, read-out: Activity

Row | SMILES | growth at 0.01 µM [%]
16 | COc1cc(Cl)cc(-c2nn(-c3cccc(NC(=O)Nc4ccc(Cl)c(Cl)c4)c3)cc2-c2ccncc2)c1 | 92

tested on: U-251; test: Growth inhibition of human U251 cells assessed as cell growth at 0.01 uM incubated for 48 hrs by sulforhodamine B assay relative to control; format: functional; details: U-251, 48 h, read-out: Activity

Row | SMILES | growth at 0.01 µM [%]
17 | COc1cc(Cl)cc(-c2nn(-c3cccc(NC(=O)Nc4ccc(Cl)c(Cl)c4)c3)cc2-c2ccncc2)c1 | 95

tested on: MDA-MB-231; test: Growth inhibition of human MDA-MB-231 cells assessed as cell growth at 0.01 uM incubated for 48 hrs by sulforhodamine B assay relative to control; format: functional; details: MDA-MB-231, 48 h, read-out: Activity

Row | SMILES | growth at 0.01 µM [%]
18 | COc1cc(Cl)cc(-c2nn(-c3cccc(NC(=O)Nc4ccc(Cl)c(Cl)c4)c3)cc2-c2ccncc2)c1 | 109

tested on: HCC 2998; test: Growth inhibition of human HCC2998 cells assessed as cell growth at 0.1 uM incubated for 48 hrs by sulforhodamine B assay relative to control; format: functional; details: HCC 2998, 48 h, read-out: Activity

Row | SMILES | growth at 0.1 µM [%]
19 | COc1cc(Cl)cc(-c2nn(-c3cccc(NC(=O)Nc4ccc(Cl)c(Cl)c4)c3)cc2-c2ccncc2)c1 | 96

tested on: OVCAR-5; test: Growth inhibition of human OVCAR5 cells assessed as cell growth at 0.1 uM incubated for 48 hrs by sulforhodamine B assay relative to control; format: functional; details: OVCAR-5, 48 h, read-out: Activity

Row | SMILES | growth at 0.1 µM [%]
20 | COc1cc(Cl)cc(-c2nn(-c3cccc(NC(=O)Nc4ccc(Cl)c(Cl)c4)c3)cc2-c2ccncc2)c1 | 59

tested on: MDA-MB-231; test: Growth inhibition of human MDA-MB-231 cells assessed as cell growth at 0.1 uM incubated for 48 hrs by sulforhodamine B assay relative to control; format: functional; details: MDA-MB-231, 48 h, read-out: Activity

Row | SMILES | growth at 0.1 µM [%]
21 | COc1cc(Cl)cc(-c2nn(-c3cccc(NC(=O)Nc4ccc(Cl)c(Cl)c4)c3)cc2-c2ccncc2)c1 | 96

tested on: K562; test: Growth inhibition of human K562 cells assessed as cell growth at 1 uM incubated for 48 hrs by sulforhodamine B assay relative to control; format: functional; details: K562, 48 h, read-out: Activity

Row | SMILES | growth at 1 µM [%]
22 | COc1cc(Cl)cc(-c2nn(-c3cccc(NC(=O)Nc4ccc(Cl)c(Cl)c4)c3)cc2-c2ccncc2)c1 | 67

tested on: NCI-H23; test: Growth inhibition of human NCI-H23 cells assessed as cell growth at 1 uM incubated for 48 hrs by sulforhodamine B assay relative to control; format: functional; details: NCI-H23, 48 h, read-out: Activity

Row | SMILES | growth at 1 µM [%]
23 | COc1cc(Cl)cc(-c2nn(-c3cccc(NC(=O)Nc4ccc(Cl)c(Cl)c4)c3)cc2-c2ccncc2)c1 | 89

tested on: HT-29; test: Growth inhibition of human HT-29 cells assessed as cell growth at 1 uM incubated for 48 hrs by sulforhodamine B assay relative to control; format: functional; details: HT-29, 48 h, read-out: Activity

Row | SMILES | growth at 1 µM [%]
24 | COc1cc(Cl)cc(-c2nn(-c3cccc(NC(=O)Nc4ccc(Cl)c(Cl)c4)c3)cc2-c2ccncc2)c1 | 62

tested on: SF-539; test: Growth inhibition of human SF539 cells assessed as cell growth at 1 uM incubated for 48 hrs by sulforhodamine B assay relative to control; format: functional; details: SF-539, 48 h, read-out: Activity

Row | SMILES | growth at 1 µM [%]
25 | COc1cc(Cl)cc(-c2nn(-c3cccc(NC(=O)Nc4ccc(Cl)c(Cl)c4)c3)cc2-c2ccncc2)c1 | 82

tested on: Malme-3M; test: Growth inhibition of human MALME-3M cells assessed as cell growth at 1 uM incubated for 48 hrs by sulforhodamine B assay relative to control; format: functional; details: read-out: Activity

Row | SMILES | growth at 1 µM [%]
26 | COc1cc(Cl)cc(-c2nn(-c3cccc(NC(=O)Nc4ccc(Cl)c(Cl)c4)c3)cc2-c2ccncc2)c1 | 77

tested on: UACC-257; test: Growth inhibition of human UACC257 cells assessed as cell growth at 1 uM incubated for 48 hrs by sulforhodamine B assay relative to control; format: functional; details: UACC-257, 48 h, read-out: Activity

Row | SMILES | growth at 1 µM [%]
27 | COc1cc(Cl)cc(-c2nn(-c3cccc(NC(=O)Nc4ccc(Cl)c(Cl)c4)c3)cc2-c2ccncc2)c1 | 80

tested on: HL-60(TB); test: Growth inhibition of human HL-60(TB) cells assessed as cell growth at 100 uM incubated for 48 hrs by sulforhodamine B assay relative to control; format: functional; details: HL-60, 48 h, read-out: Activity

Row | SMILES | growth at 100 µM [%]
28 | COc1cc(Cl)cc(-c2nn(-c3cccc(NC(=O)Nc4ccc(Cl)c(Cl)c4)c3)cc2-c2ccncc2)c1 | -30

tested on: MOLT-4; test: Growth inhibition of human MOLT4 cells assessed as cell growth at 100 uM incubated for 48 hrs by sulforhodamine B assay relative to control; format: functional; details: MOLT-4, 48 h, read-out: Activity

Row | SMILES | growth at 100 µM [%]
29 | COc1cc(Cl)cc(-c2nn(-c3cccc(NC(=O)Nc4ccc(Cl)c(Cl)c4)c3)cc2-c2ccncc2)c1 | -7

tested on: SR; test: Growth inhibition of human SR cells assessed as cell growth at 100 uM incubated for 48 hrs by sulforhodamine B assay relative to control; format: functional; details: read-out: Activity

Row | SMILES | growth at 100 µM [%]
30 | COc1cc(Cl)cc(-c2nn(-c3cccc(NC(=O)Nc4ccc(Cl)c(Cl)c4)c3)cc2-c2ccncc2)c1 | -26

tested on: HOP-62; test: Growth inhibition of human HOP62 cells assessed as cell growth at 100 uM incubated for 48 hrs by sulforhodamine B assay relative to control; format: functional; details: HOP-62, 48 h, read-out: Activity

Row | SMILES | growth at 100 µM [%]
31 | COc1cc(Cl)cc(-c2nn(-c3cccc(NC(=O)Nc4ccc(Cl)c(Cl)c4)c3)cc2-c2ccncc2)c1 | 12

tested on: SF-295; test: Growth inhibition of human SF295 cells assessed as cell growth at 100 uM incubated for 48 hrs by sulforhodamine B assay relative to control; format: functional; details: SF-295, 48 h, read-out: Activity

Row | SMILES | growth at 100 µM [%]
32 | COc1cc(Cl)cc(-c2nn(-c3cccc(NC(=O)Nc4ccc(Cl)c(Cl)c4)c3)cc2-c2ccncc2)c1 | -21

tested on: MDA-MB-435; test: Growth inhibition of human MDA-MB-435 cells assessed as cell growth at 100 uM incubated for 48 hrs by sulforhodamine B assay relative to control; format: functional; details: MDA-MB-435, 48 h, read-out: Activity

Row | SMILES | growth at 100 µM [%]
33 | COc1cc(Cl)cc(-c2nn(-c3cccc(NC(=O)Nc4ccc(Cl)c(Cl)c4)c3)cc2-c2ccncc2)c1 | -33

tested on: OVCAR-8; test: Growth inhibition of human OVCAR8 cells assessed as cell growth at 100 uM incubated for 48 hrs by sulforhodamine B assay relative to control; format: functional; details: OVCAR-8, 48 h, read-out: Activity

Row | SMILES | growth at 100 µM [%]
34 | COc1cc(Cl)cc(-c2nn(-c3cccc(NC(=O)Nc4ccc(Cl)c(Cl)c4)c3)cc2-c2ccncc2)c1 | -9
